Test results taken from PMC5352758, “Methods for 20S Immunoproteasome and 20S Constitutive Proteasome Determination Based on SPRI Biosensors” (Cellular and Molecular Bioengineering, 2017).
Where a SMILES comes first, the peptide text is derived from it. [ ]: non-standard residue; d: D form. hPhe = N[C@@H](CCc1ccccc1)C(=O)O; Nle = CCCC[C@H](N)C(=O)O

Assays:
[1] = target: 20Sc (constitutive proteasome; commercially available proteasome) (Homo sapiens, UniProt P28072+P28074+Q99436); experiment: SPRI measurement of ability of immobilized potential receptor to bind 20Sc; type: binding, mammalian; details: receptor at 1, 10, 100 μg mL−1, 20Sc 2.8 μg mL−1, SPRI signal increase of less than 20% = lack of ability to bind
Procedure: (§1) Chips were immersed in an ethanolic solution 1-octadecanothiol (ODM) ([…]) for 24 h at room temperature. Then the biosensors have been repeatedly washed in ethanol and water, and dried under a stream of argon. Chips prepared in this way can be stored and used for subsequent measurements. […] After that time, the process of immobilization of the inhibitor by hydrophobic interaction was completed. A biosensor prepared in this way should be used directly for analysis. A diagram of the chip appears in Fig. 1a.
(§2) The chip was immersed in a vessel with an ethanolic solution of cysteamine for 2 h at room temperature. After 2 h, the chip was rinsed with ethanol and water and dried under a stream of argon. A chip prepared in this manner can be stored and used for subsequent measurements. Each of the synthesised inhibitor solutions was activated with NHS (250 mM) and EDC (250 mM) in the ratio 1: 1 and carbonate buffer (pH 8.5) as a suitable reaction medium. Next, 3 μL of this solution was placed on each of nine active sites on the amine-modified surface. The closed vessel with the biosensor and under appropriate conditions of humidity was incubated at 37 °C for 1 h. Next, the biosensor was rinsed with water and dried under a stream of argon. A biosensor prepared in this way should be used directly for testing and analysis.
(§3) SPRI measurements for the protein biosensor array were performed as described elsewhere.[8],[11] Briefly, the measurements were performed at a fixed angle of incident light and the reflectivity was simultaneously measured cross an entire chip surface. The contrast values obtained for all pixels across a particular sample single spot were integrated. The signal was measured twice on the basis of registered images, after immobilization of the inhibitor and after immunoproteasome interaction. The SPRI signal, which is proportional to the coupled protein, was obtained by subtraction between the signals before and after interaction with protein for each spot separately.
(§4) A background correction was applied i.e. some of the sites on the biosensor covered with PBS buffer were used as a control. Non-specific binding was monitored by measuring the SPRI signal at a site on the chip without the receptor (ligand). Minimization of non-specific binding was achieved by preparing samples in PBS buffer (NaCl an KCl concentration ~200 mM) at pH 7.4 near the isoelectric point of the protein.
(§5) A crucial factor for the application of newly synthesised potential receptors is their selectivity. Selectivity for 20Si or 20Sc was checked using SPRI measurements. […] Measurements were performed as described above at three different concentrations of potential receptors (1, 10, 100 μg mL^−1) at a fixed concentration of 20Si (2.8 μg mL^−1) or 20Sc (2.8 μg mL^−1). An increase in the SPRI signal of less than 20% was considered to imply lack of ability to bind 20Si or 20Sc.

[2] = target: T1, chymotrypsin (Bos taurus, UniProt P00766); experiment: Inhibition of amidolytic activity of chymotrypsin (chromogenic substrate); type: biochemical; details: substrate Suc-Phe-pNA 8 mM, tris buffer pH 9.0, chymotrypsin 0.4 units mL−1, 3 min pre-incubation at 37 °C, 20 min incubation, absorbance 405 nm, average of triplicate
T1 construct: purchased Sigma (Schnelldorf, Germany)
Procedure: (§6) Determination of amidolytic activity was performed as described by Okada.[22] The synthetic amidolytic (chromogenic) substrates (Bzl-L-Arg-pNA.HCl for trypsin and Suc-Phe-pNA for chymotrypsin) are selected to give appropriate specificity for inhibition of the serine proteases. A chromophore (para-nitroaniline = pNA, yellow color) is cleaved from the C-terminus amide bond by the protease, and the absorbance can be detected.
(§7) A detailed description of the method is given below. The buffer and the enzyme solution contained: • […] buffer—0.5 mL (pH 7.5), enzyme: trypsin (0.4 units mL^−1), synthetic substrate: Bzl-L-Arg-pNA.HCl (0.2 mL, 8 mM); • tris buffer—0.6 mL (pH 9.0), enzyme: chymotrypsin (0.4 units mL^−1), synthetic substrate: Suc-Phe-pNA (0.2 mL, 8 mM).
(§8) The buffer and 0.1 mL of enzyme solution were added to 0.2 mL of the examined compound dissolved in 0.15 M NaCl (1–11) (as control 0.15 M NaCl). The mixture was incubated for 3 min at 37 °C, then the synthetic substrate was added. After 20 min of incubation, the reaction was stopped by adding 0.1 mL of 50% acetic acid, and the absorbance of the released p-nitroaniline was measured at 405 nm (Spekol 1300, Analytic Jena). Every value represents the average of triplicate determination. The IC50 value was taken as the concentration of the inhibitor which decreased the absorbance at 405 nm by 50% compared with the absorbance measured under the same conditions without the inhibitor.

[3] = target: T2, 20Si (immunoproteasome) (Homo sapiens, UniProt P28062+P28065+P40306); experiment: SPRI measurement of ability of immobilized potential receptor to bind 20Si; type: binding; details: for Selectivity of binding 20Si vs 20Sc, in words (text summary of Table 4): 20Si or 20Sc 2.8 μg mL−1; for Ability to bind 20Si: receptor at 1, 10, 100 μg mL−1, 20Si 2.8 μg mL−1, SPRI signal increase of less than 20% = lack of ability to bind
T2 construct: purchased www.vivabioscience.com (Basepoint Business Centre, United Kingdom)
Procedure: as §1, §2, §3, §4, §5

[4] = target: T3, 20Si (Homo sapiens, UniProt P28062+P28065+P40306); experiment: Specificity of SPRI biosensor: 20Si determination in the presence of an interferent; type: binding; details: added 20Si 2.80 μg mL−1; for Found 20Si: tripeptide as receptor via cysteamine linker, 20Sc 2.8 μg mL−1, ratio 20Si vs. 20Sc 1:1, 95% confidence limits, 12 measurements; for Recovery: tripeptide as receptor, 20Sc 2.8 μg mL−1, ratio 1:1
T3 construct: purchased www.vivabioscience.com (Basepoint Business Centre, United Kingdom)
Procedure: as §3, §4
The specificity of the developed biosensor, especially against 20Sc, is crucial factor for the device’s application. Specificity was investigated at different ratios of 20Si and 20Sc and various 20Si concentrations. Additionally, tolerance of human albumin was checked.
This investigation is crucial for the determination of 20Si in the presence of 20Sc. Series of model solutions containing both 20Si (2.8 μg mL^−1) and 20Sc (2.8 μg mL^−1) were determined using four developed biosensors specific for 20Si. The confidence limits of the results are a measure of measurement precision.

[5] = tested on: trypsin; experiment: Inhibition of amidolytic activity of trypsin (chromogenic substrate); type: biochemical; details: substrate Bzl-L-Arg-pNA.HCl 8 mM, borane buffer pH 7.5, trypsin 0.4 units mL−1, 3 min pre-incubation at 37 °C, 20 min incubation, absorbance 405 nm, average of triplicate
Procedure: as §6, §7, §8

Structure (SMILES)	Ability to bind 20Sc [1]	IC50 [2] [µM]	Selectivity of binding 20Si vs 20Sc, in words (text summary of Table 4) [3]	Ability to bind 20Si [3]	Found 20Si [4] [µg/mL]	Recovery [4] [%]	IC50 [5] [µM]
CC(C)C[C@H](NC(=O)[C@@H](N)Cc1ccccc1)C(=O)N[C@@H](Cc1ccccc1)C(=O)O [compound 1, H-Phe-Leu-Phe-OH] (H-Phe-Leu-Phe-OH)	+ (+, bound)	178 ± 14	able to bind both 20Si and 20Sc	+ (+, bound)	–	–	–
CC(C)C[C@H](N)C(=O)N[C@@H](Cc1ccccc1)C(=O)N[C@@H](Cc1ccccc1)C(=O)O [compound 4, H-Leu-Phe–Phe-OH] (H-Leu-Phe-Phe-OH)	– (−, lack of bonding)	184 ± 14	does not capture any form of 20S	– (−, lack of bonding)	–	–	–
CC(C)C[C@H](NC(=O)[C@H](CC(C)C)NC(=O)[C@@H](N)Cc1ccccc1)C(=O)O [compound 5, H-Phe-Leu–Leu-OH] (H-Phe-Leu-Leu-OH)	– (−, lack of bonding)	184 ± 14	selective inhibition of 20Si	+ (+, bound)	2.97 ± 0.40	106	–
CC(C)C[C@H](NC(=O)[C@H](Cc1ccccc1)NC(=O)[C@@H](N)Cc1ccccc1)C(=O)O [compound 6, H-Phe-Phe-Leu-OH] (H-Phe-Phe-Leu-OH)	+ (+, bound)	174 ± 13	selectivity to 20Sc	– (−, lack of bonding)	–	–	–
CC(C)C[C@H](NC(=O)[C@@H](N)CC(C)C)C(=O)N[C@@H](Cc1ccccc1)C(=O)O [compound 8, H-Leu-Leu-Phe-OH] (H-Leu-Leu-Phe-OH)	– (−, lack of bonding)	152 ± 12	selective inhibition of 20Si	+ (+, bound)	2.88 ± 0.44	103	79 ± 6

Continued by falling IC50 [2], values first:

Ability to bind 20Sc [1]	IC50 [2] [µM]	Selectivity of binding 20Si vs 20Sc, in words (text summary of Table 4) [3]	Ability to bind 20Si [3]	Found 20Si [4] [µg/mL]	Recovery [4] [%]	IC50 [5] [µM]	Structure (SMILES)
– (−, lack of bonding)	1920 ± 150	selective inhibition of 20Si	+ (+, bound)	2.99 ± 0.47	107	18000 ± 1440	CCCC[C@H](NC(=O)[C@H](CC(C)C)NC(=O)[C@@H](N)Cc1ccccc1)C(=O)O [compound 11, H-Phe-Leu-nLeu-OH] (H-Phe-Leu-[Nle]-OH)
– (−, lack of bonding)	1830 ± 150	selective inhibition of 20Si	+ (+, bound)	2.89 ± 0.60	103	12000 ± 960	CC(C)C[C@H](NC(=O)[C@H](Cc1ccccc1)NC(=O)[C@@H](N)CC(C)C)C(=O)O [compound 10, H-Leu-Phe-Leu-OH] (H-Leu-Phe-Leu-OH)
+ (+, bound)	187 ± 14	able to bind both 20Si and 20Sc	+ (+, bound)	–	–	–	C[C@H](NC(=O)[C@@H](N)Cc1ccccc1)C(=O)N[C@@H](Cc1ccccc1)C(=O)O [compound 3, H-Phe-Ala-Phe-OH] (H-Phe-Ala-Phe-OH)
+ (+, bound)	185 ± 14	able to bind both 20Si and 20Sc	+ (+, bound)	–	–	–	N[C@@H](Cc1ccccc1)C(=O)N[C@@H](Cc1ccccc1)C(=O)N[C@@H](Cc1ccccc1)C(=O)O [compound 2, H-Phe-Phe–Phe-OH] (H-Phe-Phe-Phe-OH)
+ (+, bound)	185 ± 14	able to bind both 20Si and 20Sc	+ (+, bound)	–	–	44 ± 3	N[C@@H](Cc1ccccc1)C(=O)N[C@@H](CCc1ccccc1)C(=O)N[C@@H](Cc1ccccc1)C(=O)O [compound 7, H-Phe-hPhe-Phe-OH] (H-Phe-[hPhe]-Phe-OH)
+ (+, bound)	141 ± 11	selectivity to 20Sc	– (−, lack of bonding)	–	–	–	N[C@@H](Cc1ccccc1)C(=O)N[C@@H](Cc1ccccc1)C(=O)O [compound 9, H-Phe-Phe-OH] (H-Phe-Phe-OH)
